The results in this text go back to patent publication USH1142H, “Optically active cyclobutyl pyrimidine” (priority 1990, dated 1993).

Experiment [1] concerns HSV-1 (herpes simplex virus type 1, strain Schooler). The experiment can be described thus: HSV-1 antiviral assay (plaque reduction in WI-38 cell culture monolayers). The format is cell-based. Conditions: Human alphaherpesvirus 1, 96 h; HSV-1 strain Schooler; WI-38 monolayers; 4 days incubation at 37° C.; at least a 50% plaque reduction compared to virus controls; read-out: ID50 (the source's name). As for the experimental part: (§1) Assays were performed in cell culture systems to determine the concentrations of compounds that are effective in […] several kinds of viral infections. The assays are described below, and the results are presented in Table 1. |HSV-1 (herpes simplex virus type 1, strain Schooler), VZV |Cell Culture Assays: |HSV-1 and VZV antiviral assays: Virus was adsorbed to |WI-38 cell culture monolayers in 6 well culture plates (Costar, |Cambridge, MA) for 1 hour prior to addition of maintenance |medium containing duplicate dilutions of the test compound. |Inhibition of plaque development was evaluated on fixed and |stained monolayers after 4 days incubation at 37° C. for HSV-1 |and after 6-7 days incubation at 37° C. for VZV. ID50 values |were determined from the drug concentration which conferred at |least a 50% plaque reduction compared to virus controls.

In experiment [2] the test system is VZV (varicella zoster virus, strain ELLEN). The experiment is described as follows: VZV antiviral assay (plaque reduction in WI-38 cell culture monolayers). In kind it is cell-based. The note with it: Human alphaherpesvirus 3, WI-38 monolayers, 6-7 days incubation at 37° C., at least a 50% plaque reduction compared to virus controls, read-out: ID50 (the source's name). As for the experimental part: as §1, with “Schooler), VZV |(varicella zoster virus, strain ELLEN). |Cell Culture” for “Schooler), VZV |Cell Culture”

As for `O=c1[nH]c(=O)n([C@@H]2C[C@H](CO)[C@H]2CO)cc1/C=C/Br` [Compound 1, [1R-(1α(E),2β,3α)]-1-[2,3-bis(hydroxymethyl)cyclobutyl]-5-(2-bromoethenyl)-2,4(1H,3H)-pyrimidinedione], the IC50 in experiment [1] is 300 nM; in experiment [2], 60 to 150 nM.
